Results as given in publication PMC10629533, “Structures and membrane interactions of native serotonin transporter in complexes with psychostimulants” (Proceedings of the National Academy of Sciences of the …, 2023).

Biological target: T1, porcine serotonin transporter (pSERT) (Sus scrofa, UniProt F1RN70)
T1 construct: gene SLC6A4; native full-length pSERT from porcine brain; model residues 116-654; with 15B8 Fab
Test: cryo-EM structure ([…] Å); [3H]paroxetine competition SPA with purified native pSERT
Type: binding

T1 sequence (F1RN70 38-667): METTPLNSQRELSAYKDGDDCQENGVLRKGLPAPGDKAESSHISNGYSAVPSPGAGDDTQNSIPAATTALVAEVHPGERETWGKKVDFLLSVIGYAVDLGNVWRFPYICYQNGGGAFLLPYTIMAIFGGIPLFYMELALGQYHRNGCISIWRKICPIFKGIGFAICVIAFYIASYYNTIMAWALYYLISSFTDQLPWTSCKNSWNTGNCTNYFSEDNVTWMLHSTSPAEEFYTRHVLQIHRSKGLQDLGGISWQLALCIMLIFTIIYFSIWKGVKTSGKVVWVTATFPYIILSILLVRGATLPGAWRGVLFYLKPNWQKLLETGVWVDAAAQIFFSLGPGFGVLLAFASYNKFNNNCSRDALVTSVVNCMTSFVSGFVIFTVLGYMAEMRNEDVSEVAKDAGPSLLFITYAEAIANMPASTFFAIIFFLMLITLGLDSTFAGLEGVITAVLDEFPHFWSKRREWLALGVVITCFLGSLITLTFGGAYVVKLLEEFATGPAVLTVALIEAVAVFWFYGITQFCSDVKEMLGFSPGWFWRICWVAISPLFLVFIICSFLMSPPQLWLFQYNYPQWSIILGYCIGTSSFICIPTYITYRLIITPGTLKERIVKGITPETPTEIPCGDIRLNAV

Structure (SMILES): CN[C@@H](C)Cc1ccccc1 [(+)-methamphetamine]
- Ki: 199 ± 103 µM
